The record followed here is paper PMC8348161, “Cardiolipin-Containing Lipid Membranes Attract the Bacterial Cell Division Protein DivIVA” (International Journal of Molecular Sciences, 2021).

The experiment has as its target T1, DivIVACd (Clostridioides difficile, UniProt Q182V3).
T1 construct: gene CD630_26190; full length, untagged (pET-26b) or His-SUMO tag cut by Ulp1 without extra residues; E. coli BL21(DE3)pLysS; forms large polymers
T1 sequence (Q182V3 1-175): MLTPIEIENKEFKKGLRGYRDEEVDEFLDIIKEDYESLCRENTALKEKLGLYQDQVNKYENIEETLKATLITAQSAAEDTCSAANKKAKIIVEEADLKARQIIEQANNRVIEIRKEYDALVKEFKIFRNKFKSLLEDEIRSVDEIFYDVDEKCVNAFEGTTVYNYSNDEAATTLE
Put plainly: QCM-D, protein titrated over supported lipid bilayer, Hill fit. The experiment is classed as binding. The conditions noted are these: 5% CL in mixed bilayer (65% DOPC, 30% DOPG, 5% TOCL); protein concentration scale; Hill coefficient 1.0; pH 7.4, 250 mM KCl, 5 mM MgCl2, 23 °C.

pKd: −log10 of the molar value.

With `CCCCCCCC/C=C\CCCCCCCC(=O)OC[C@H](COP(=O)(O)OCC(O)COP(=O)(O)OC[C@@H](COC(=O)CCCCCCC/C=C\CCCCCCCC)OC(=O)CCCCCCC/C=C\CCCCCCCC)OC(=O)CCCCCCC/C=C\CCCCCCCC` (stereo partly shown) [TOCL, 1,3-bis[1,2-dioleoyl-sn-glycero-3-phospho]-glycerol], the pKd (in general, the negative decadic logarithm of the Kd, by convention in mol/L) was 5.89.
